# Data from patent publication US7691985B2, “Skeletal-targeted radiation to treat bone-associated pathologies” (priority 1999, dated 2010).
# Key:
# [1] = Phase II multicenter dosimetry study of ^166Ho-DOTMP: safety, biodistribution, pharmacokinetics (Example 9); type: in vivo, human
# Method: A 12-patient, Phase II multicenter study was performed to further evaluate the safety, biodistribution and pharmacokinetics of ^166Ho-DOTMP. Each patient was to receive two 30 mCi tracer doses of ^166Ho-DOTMP followed, in eligible patients (those with adequate skeletal uptake parameters), by a therapy dose calculated to deliver 25 Gy to the red marrow. All patients in this study received CBI.
# [2] = Stability of ^166Ho-DOTMP with and without stabilizer: radiochemical purity by ITLC, CEC, HPLC (Example 15); type: physicochemical; conditions: ascorbic acid about 35-75 mg/mL, ambient conditions, unfrozen
# Method: Samples of ^166Ho-DOTMP were prepared according to the procedure in Example 1 using ascorbic acid, 55 mg/mL, as the stabilizer. Identical samples were prepared without ascorbic acid. The solutions were analyzed for radiochemical purity after 1 hour, 6 hours, 10 hours, 24 hours, and 48 hours, using Instant Thin Layer Chromatography (ILTC), Cation Exchange Chromatography (CEC) and High Performance Liquid Chromatography (HPLC).
# multiple myeloma = experiment: Single patient: 40 Gy ^166Ho-DOTMP, melphalan 140 mg/m^2 (Example 12); type: in vivo, human
# Method: The patient, a person with an original diagnosis of multiple myeloma, was administered a therapeutic dose of ^166Ho-DOTMP of 3875 mCi which was calculated to deliver 40 Gy to the marrow. Post ^166Ho-DOTMP, the patient received a dose of 140 mg/m^2 of melphalan (I.V.). The patients stem cells were reinfused three days after the melphalan and were followed by G-CSF for ten days.
# [3] = 3875 mCi (40 Gy to marrow), melphalan 140 mg/m^2, one patient
compound,measurement,setting,value
O=P([O-])(O)CN1CCN(CP(=O)(O)O)CCN(CP(=O)([O-])O)CCN(CP(=O)(O)O)CC1.[166Ho] [^166Ho-DOTMP],route of excretion,[1]; gamma camera counting and urine PK,no route of excretion other than the urine
same,localization of retained activity,[1]; gamma camera images,retained activity was localized in the skeleton
same,hypocalcemia or associated cardiac abnormalities,"[1]; serum calcium, ECG and Holter monitoring",no clinical observations of hypocalcemia or associated cardiac abnormalities were noted
same,acute toxicities,[1]; therapy dose 25 Gy to red marrow,no unexpected acute toxicities were noted
same,time to engraftment after stem cell transplant,"[1]; therapy dose calculated to deliver 25 Gy to red marrow, all patients",≤ 15 days
same,"time the solution is stable, e.g., therapeutically useful",[2],≥ 72 h
same,days post stem cell transplant to neutrophil engraftment (ANC >500),multiple myeloma; [3],Nine
same,"days post transplant to platelet engraftment (>20,000)",multiple myeloma; [3],fourteen
same,response,"multiple myeloma; twenty-eight days post transplant, one patient",complete remission
